Several values for one entry are separate records, joined by “and”; a condition that tells them apart may be missing. Identical values can stand only once. Entries after “also recorded” stand apart in the source; their conditions may differ. Like-named read-outs stand apart in the source and are kept apart here.
Key:
[1] = Body weight of treated mice; format: in vivo; settings: high dose, in one week
Experimental: In humans, the chemotherapy 5-Fluorouracil is a backbone of colon cancer therapy, however, has significant toxic side effects. Mice tolerate a higher dose of 5-Fluorouracil compared to humans on a per weight per day basis. When a high dose of 5-Fluorouracil is administered to mice, they lose 20% of their total weight in one week (FIG. 12A). […] This is in direct contrast to the improved inhibition of tumor burden and treatment effect identified by using the nanoparticle formulation of LY2090314 (FIGS. 5A-5C).

wildtype colon organoids = experiment: Wildtype colon organoid growth, resazurin viability assay; format: cell-based, Mouse and human; settings: for ranking by on-target vs off-target function in organoids: order: LY2090314, SAR502250, A-1070722, CHIR 99021; for growth of wildtype colon organoids: resazurin assay
Experimental: (§1) Mouse and human organoids were grown in standard organoid culture systems using MATRIGEL® and Advanced DMEM/F12 media with 5% fetal bovine serum, and GLUTAMAX® supplementation. Dose responses of the labeled drugs were applied to the organoid cultures and resazurin viability assays were performed after 4 days of culture. Relative growth is assessed by conversion of resazurin to resorufin and is shown on the y axis.
To further generalize the approach using different GSK3 inhibitors, two other compounds were identified which via GSK3 inhibition, induce Wnt responses in colon organoids. […] Using primary wildtype colon crypts, the capacity of SAR502250 to promote wildtype organoid growth was evaluated using a resazurin metabolic based assay.

Wnt signaling = experiment: TOP-TdTomato Wnt reporter in wildtype organoids; format: cell-based
[2] = test system: organoids that harbor an APC mutation; experiment: Growth of APC-mutant colon cancer organoid genotypes, resazurin assay; format: cell-based; settings: at all concentrations; also with added KRAS, p53, SMAD4 mutations
Experimental: as §1
Same as FIG. 1, but the genotype of the organoids tested vary instead of being wildtype, they contain the mutations as indicated in the figure description.

[3] = test system: Human colon cancers (colon tumor organoid lines); experiment: Human colon tumor organoid dose response, resazurin; format: cell-based; settings: every human colon cancer, 4 days of culture
Experimental: Human colon cancers were collected from the operating room at MGH. Colon tumor organoids lines were generated from the resections and maintained in standard colon organoid culture conditions. Dose responses of LY2090314 were applied to the various human colon cancers and resazurin cell number counts were performed after 4 days of culture.

[4] = test system: colon cancer organoids (AKPVT); experiment: AKPVT colon cancer organoid growth, resazurin based assay; format: cell-based, mouse; settings: for inhibition of AKPVT colon cancer organoid growth: single agent
Experimental: FIG. 14 is a two-dimensional dose response of RSPO1 by LY2090314 on inhibiting colon cancer organoid growth (AKPVT), assessed by resazurin based assay.
Viability decrease was assessed using a resazurin based metabolic/proliferation assay.

colon cancer organoids = experiment: LY2090314 together with 5-FU on colon cancer organoids; format: cell-based; settings: combination with 5-FU
Excerpt: LY2090314 was used together with 5-FU on colon cancer organoids. […] The cell killing or tumor inhibition effect of LY2090314 is additive with 5-FU. Thus, LY2090314 can be added to many of the existing chemotherapy regimens for colon cancer with improved outcomes.

[5] = in DMSO; cited from earlier work
β-catenin = settings: 20 nM; cited from earlier work
GSK3 = settings: cited from earlier work
melanoma cell lines = settings: cited from earlier work
[6] = rats; cited from earlier work
[7] = dogs; cited from earlier work
[8] = humans; cited from earlier work
[9] = cited from earlier work
A375 xenograft = settings: 25 mg/kg Q3D, i.v., cited from earlier work

## O=c1[nH]cc(F)c(=O)[nH]1 [5-Fluorouracil]
[1]
  loss of total weight: 20%

## COc1ccc2c(NC(=O)Nc3cccc(C(F)(F)F)n3)ccnc2c1 [A-1070722]
Wildtype colon organoids
  ranking by on-target vs off-target function in organoids: best drugs in decreasing order of efficacy

## CN1CCN(S(=O)(=O)c2ccc(-c3cnc(N)c(C(=O)Nc4cccnc4)n3)cc2)CC1 [AZD2858]
Wildtype colon organoids
  growth of wildtype colon organoids: capacity to grow normal wildtype organoids; also recorded: clear low nanomolar capacity to support normal colon organoid growth
Wnt signaling
  Wnt response, TOP-TdTomato reporter activity: promote a Wnt response; also recorded: confirmed to be on target Wnt signaling

## Cc1c[nH]c(-c2cnc(NCCNc3ccc(C#N)cn3)nc2-c2ccc(Cl)cc2Cl)n1 [CHIR 99021]
Wildtype colon organoids
  ranking by on-target vs off-target function in organoids: best drugs in decreasing order of efficacy

## O=C1NC(=O)C(c2cnc3ccccn23)=C1c1cn2c3c(cc(F)cc13)CN(C(=O)N1CCCCC1)CC2 [LY2090314]
Wildtype colon organoids
  ranking by on-target vs off-target function in organoids: best drugs in decreasing order of efficacy
  growth of wildtype colon organoids: potently permits the growth; also recorded: general improvement in growth; also recorded: more potent than SAR502250
[2]
  growth of organoids that harbor an APC mutation: inhibited the growth
[3]
  susceptibility of human colon cancer organoids: showed susceptibility
[4]; LY2090314 combined with RSPO1
  combination effect with a Wnt agonist on tumor organoid growth: synergistic effect
Colon cancer organoids
  cell killing or tumor inhibition effect together with 5-FU: additive
[5]
  solubility: 31 mg/mL and 60.48 mM
β-catenin
  induction of Axin2: induction of Axin2
  stabilization of β-catenin total protein: time-dependent stabilization
GSK3
  fold selectivity relative to a large panel of kinases: highly selective towards GSK3
Melanoma cell lines
  activity in cell lines resistant to PLX4032: remains active
Melanoma cell lines; irrespective of BRAF mutation status
  apoptotic cell death: potently induces apoptotic cell death
[6]
  half-life: approximately 0.4 hours
[7]
  half-life: ~0.7 h
[8]
  half-life: 1.8 to 3.4 h
[9]; approximating hepatic blood flow
  clearance: high clearance
[9]; in vivo
  volume of distribution: 1 to 2 L/kg
A375 xenograft
  Axin2 gene expression in vivo: elevates Axin2 gene expression
  single agent activity in the A375 xenograft model: demonstrates single agent activity
A375 xenograft; with DTIC
  effect on efficacy of DTIC: enhances the efficacy of DTIC

## Cn1c(N2CCO[C@@H](c3ccc(F)cc3)C2)nc(-c2ccncn2)cc1=O [SAR502250]
Wildtype colon organoids
  ranking by on-target vs off-target function in organoids: best drugs in decreasing order of efficacy
  growth of wildtype colon organoids: capacity to grow normal wildtype organoids; also recorded: can independently permit wildtype organoid growth
[4]
  inhibition of AKPVT colon cancer organoid growth: more modest inhibition than LY2090314
Wnt signaling
  Wnt response, TOP-TdTomato reporter activity: promote a Wnt response

B1: RSPO1: concentrated RSPO1, a Wnt agonist (protein, UniProt Q2MKA7 21-263, looked up)
R-spondin-1: SRGIKGKRQRRISAEGSQACAKGCELCSEVNGCLKCSPKLFILLERNDIRQVGVCLPSCPPGYFDARNPDMNKCIKCKIEHCEACFSHNFCTKCKEGLYLHKGRCYPACPEGSSAANGTMECSSPAQCEMSEWSPWGPCSKKQQLCGFRRGSEERTRRVLHAPVGDHAACSDTKETRRCTVRRVPCPEGQKRRKGGQGRRENANRNLARKESKEAGAGSRRRKGQQQQQQQGTVGPLTSAGPA
[4]; RSPO1 in the presence of low nanomolar LY2090314
  reduction in viability of colon cancer organoids: more than 40%
[4]
  inhibition of AKPVT colon cancer organoid growth: modest effect

Source: US12440497B2, “Compositions and methods for enhancing Wnt signaling for treating cancer” (Massachusetts Institute of Technology, priority 2021, dated 2025)
